Results published in article PMC6611822, “Enhancement of laccase activity by pre-incubation with organic solvents” (Scientific Reports, 2019).

What was measured:
[1] = system: T1, AbLac; conditions: 0% acetone pre-incubation; pH 3.0 citrate-phosphate; 30 °C
T1 construct: gene lcc1

[2] = system: T2, TvLac; conditions: 0% acetone pre-incubation; pH 3.0 citrate-phosphate; 30 °C
T2 construct: gene LCC1

[3] = substrate: CCn1c(=NN=c2sc3cc(S(=O)(=O)O)ccc3n2CC)sc2cc(S(=O)(=O)O)ccc21; assay: purified protein; format: biochemical, Cerrena; conditions: 0% acetone pre-incubation, pH 3.0 citrate-phosphate, 30 °C, 1.25–800 μM ABTS

Km [1] [µM] | Km [2] [µM] | Molecule | Km [3] [µM] | kcat/Km [3] [M⁻¹ s⁻¹]
212 ± 19.5 | 29 ± 2.1 | CCn1c(=NN=c2sc3cc(S(=O)(=O)O)ccc3n2CC)sc2cc(S(=O)(=O)O)ccc21 [ABTS, 2,2′-azino-bis(3-ethylbenzothiazoline-6-sulphonic acid)] |  | 
 |  | DLac (Cerrena) (protein, source not restated here; 494 C atoms superimposed in the crystal structures) AVGPVTDIHIVNKDIAPDGFSRPSVLAGGTFPGPLITGQKGDNFKLNVVDDLTDASMLKSTSIHWHGFFQKGTNWADGPAFVNQCPISTGNSFLYNFQVPDQAGTYWYHSHLSTQYCDGLRGAFVVYDPTDPHKALYDVDDESTVITLADWYHTLARQIVGVAIADTTLINGLGRNTNGPADAALAVINVEAGKRYRLRLVSISCDPNYVFSIDNHDFNIIEVDGVNSKPLNVDSIQIFAGQRYSAVLNANQPVGNYWVRANPNLGTTGFTGGINSAILRYKGAPVAEPTTTQTTSTKPLQEPNLRPLVSMPVPGSATPGGVDVVHNLILGFSAGKFTINGAAFTPPSVPVLLQILSGTTNAQDLLPSGSVITLPIGKTIELTLAAGVLGGPHPFHLHGHNFHVVRSAGQTTPNYVDPIVRDVVNTGGTGDNVTIRFTTDNPGPWFLHCHIDWHLEAGFAVVFAEGVNQTNAANPTPADWNNLCNIYNALADGDK | 24 ± 3.9 | 1.47e+09 ± 3.1e+08
